The results in this text go back to patent US10125135B2, “Chemical compounds” (AstraZeneca AB, priority 2016, dated 2018).

For data set [1], the target named is ERα receptor in MCF-7 human ductal carcinoma breast cell line (Homo sapiens (Human), UniProt P03372). The data set can be described thus: MCF-7 ER down regulation assay (immuno-fluorescence). Type of data set: cell-based. As to conditions: MCF-7 cells; for DC50: 18-22 hours incubation, read-out: ER down regulation IC50 value. The protocol: MCF-7 ER Down Regulation Assay
The ability of compounds to down-regulate Estrogen Receptor (ER) numbers was assessed in a cell based immuno-fluorescence assay using the MCF-7 human ductal carcinoma breast cell line. MCF-7 cells were revived directly from a cryovial (approx 5×10^6 cells) in Assay Medium (phenol red free Dulbecco's Modified Eagle's medium (DMEM) (Sigma D5921) containing 2mM L-Glutamine and 5% (v/v) Charcoal/Dextran treated foetal calf serum. Cells were syringed once using a sterile 18 G×1.5 inch (1.2×40 mm) broad gauge needle and cell density was measured using a Coulter Counter (Beckman). Cells were further diluted in Assay Medium to a density of 3.75×10^4 cells per mL and 40 μL per well added to transparent bottomed, black, tissue culture treated 384 well plates (Costar, No. 3712) using a Thermo Scientific Matrix WellMate or Thermo Multidrop. Following cell seeding, plates were incubated overnight at 37° C., 5% CO2 (Liconic carousel incubator). Test data was generated using the LabCyte Echo™ model 555 compound reformatter which is part of an automated workcell (Integrated Echo 2 workcell). 10 mM compound stock solutions of the test compounds were used to generate a 384 well compound dosing plate (Labcyte P-05525-CV1). […] 40 μΛ of DMSO added to wells in row P on the source plate allow for DMSO normalisation across the dose range. To dose the control wells 40 μL of DMSO was added to row O1 and 40 μL of 100 μM fulvestrant in DMSO was added to row O3 on the compound source plate. […] Compounds were dispensed onto the cell plates with a compound source plate prepared as above producing a 12 pt duplicate 3 μM to 3 pM dose range with 3 fold dilutions and one final 10 fold dilution using the Integrated Echo 2 workcell. […] Cells were fixed at room temperature for 20 mins before being washed two times with 250 μL PBS/Proclin (PBS with a Biocide preservative) using a BioTek platewasher, 40 μL of PBS/Proclin was then added to all wells and the plates stored at 4° C. The fixing method described above was carried out on the Integrated Echo 2 workcell. Immunostaining was performed using an automated AutoElisa workcell. The PBS/Proclin was aspirated from all wells and the cells permeabilised with 40 μL PBS containing 0.5% Tween™ 20 (v/v) for 1 hour at room temperature. The plates were washed three times in 250 μL of PBS/0.05% (v/v) Tween 20 with Proclin (PBST with a Biocide preservative) and then 20 μL of ERα (SP1) Rabbit monoclonal antibody (Thermofisher) 1:1000 in PBS/Tween™/3% (w/v) Bovine Serum Albumin was added. The plates were incubated overnight at 4° C. (Liconic carousel incubator) and then washed three times in 250 μL of PBS/0.05% (v/v) Tween™ 20 with Proclin (PBST). The plates were then incubated with 20 μL/well of a goat anti-rabbit IgG AlexaFluor 594 or goat anti-rabbit AlexaFluor 488 antibody (Molecular Probes) with Hoechst at 1:5000 in PBS/Tween™/3% (w/v) Bovine Serum Albumin for lhour at room temperature. The plates were then washed three times in 250 μL of PBS/0.05% (v/v) Tween™ 20 with Proclin (PBST with a Biocide preservative). 20 μL of PBS was added to each well and the plates covered with a black plate seal and stored at 4° C. before being read. Plates were read using a Cellomics Arrayscan reading the 594 nm (24 hr time point) or 488 nm (5 hr timepoint) fluorescence to measure the ERα receptor level in each well. The mean total intensity was normalized for cell number giving the total intensity per cell.

Data set [2] can be described thus: Human hepatocyte assay (metabolic stability). Type of data set: in vitro ADME. As to conditions: human hepatocytes, 37° C., 1.0×10^6 viable cells/mL; read-out: Clint (in vitro intrinsic clearance). The protocol: The metabolic stability of compounds in human hepatocytes was assessed using the following protocol: • 1. Prepare 10 mM stock solutions of compound and control compounds in appropriate solvent (DMSO). Place incubation medium (L-15Medium) in a 37° C. water bath, and allow warming for at least 15 minutes prior to use. • 2. Add 80 μL of acetonitrile to each well of the 96-well deep well plate (quenching plate). • 3. In a new 96-well plate, dilute the 10 mM test compounds and the control compounds to 100 μM by combining 198 μL of acetonitrile and 2 μL of 10 mM stock. • 4. Remove a vial of cryopreserved (less than −150° C.) human hepatocytes (LiverPool™ 10 Donor Human hepatocytes obtained from Celsis IVT. Chicago, Ill. (Product No. S01205)) from storage, ensuring that vials remain at cryogenic temperatures until thawing process ensues. As quickly as possible, thaw the cells by placing the vial in a 37° C. water bath and gently shaking the vials. Vials should remain in water bath until all ice crystals have dissolved and are no longer visible. After thawing is completed, spray vial with 70% ethanol, transfer the vial to a bio-safety cabinet. • 5. Open the vial and pour the contents into the 50 mL conical tube containing thawing medium. Place the 50 mL conical tube into a centrifuge and spin at 100 g for 10 minutes. […] Using Cellometer® Vision, count cells and determine the viable cell density. Cells with poor viability (<80% viability) are not acceptable for use. Dilute cells with incubation medium to a working cell density of 1.0×10^6 viable cells/mL. • 7. Transfer 247.5 μL of hepatocytes into each well of a 96-well cell culture plate. Place the plate on Eppendorf Thermomixer Comfort plate shaker to allow the hepatocytes to warm for 10 minutes. • 8. Add 2.5 μL of 100 μM test compound or control compounds into an incubation well containing cells, mix to achieve a homogenous suspension at 0.5 min, which when achieved, will define the 0.5 min time point. At the 0.5 min time, transfer 20 μL incubated mixture to wells in a “Quenching plate” followed by vortexing. • 9. Incubate the plate at 37° C. at 900 rpm on an Eppendorf Thermomixer Comfort plate shaker. At 5, 15, 30, 45, 60, 80, 100 and 120 min, mix the incubation system and transfer samples of 20 μL incubated mixture at each time point to wells in a separate “Quenching plate” followed by vortexing. • 10. Centrifuge the quenching plates for 20 minutes at 4,000 rpm. 4 different compounds are pooled into one cassette and used for LC/MS/MS analysis.
All calculations are carried out using Microsoft Excel. Peak areas are determined from extracted ion chromatograms. In vitro intrinsic clearance (in vitro Clint, in μL/min/10^6 cells) of parent compound is determined by regression analysis of the Ln percent parent disappearance vs. time curve. The in vitro intrinsic clearance (in vitro Clint, in μL/min/10^6 cells) is determined from the slope value using the following equation and is shown in Table C:
V=incubation volume (0.25 mL);
N=number of hepatocytes per well (0.25×10 ^6 cells).

Sequence of ERα receptor in MCF-7 human ductal carcinoma breast cell line (P03372 whole entry): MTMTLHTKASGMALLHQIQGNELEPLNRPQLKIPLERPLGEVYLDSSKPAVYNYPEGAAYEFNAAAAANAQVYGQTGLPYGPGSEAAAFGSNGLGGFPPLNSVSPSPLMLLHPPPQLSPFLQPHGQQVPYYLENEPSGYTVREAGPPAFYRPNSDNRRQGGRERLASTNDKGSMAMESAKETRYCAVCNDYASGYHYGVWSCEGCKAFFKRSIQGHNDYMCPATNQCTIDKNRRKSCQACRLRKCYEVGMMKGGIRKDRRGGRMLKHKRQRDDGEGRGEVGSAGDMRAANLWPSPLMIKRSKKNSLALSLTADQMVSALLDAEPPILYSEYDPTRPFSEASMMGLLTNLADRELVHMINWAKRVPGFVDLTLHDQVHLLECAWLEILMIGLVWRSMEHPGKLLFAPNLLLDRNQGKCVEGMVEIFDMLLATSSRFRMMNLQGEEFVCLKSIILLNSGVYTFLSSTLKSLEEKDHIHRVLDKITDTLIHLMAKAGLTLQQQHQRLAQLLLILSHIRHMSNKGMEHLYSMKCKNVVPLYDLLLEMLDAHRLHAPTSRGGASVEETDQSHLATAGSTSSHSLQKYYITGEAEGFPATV

Consider `C[C@@H]1Cc2c(ccc3[nH]ncc23)[C@@H](c2c(F)cc(OCCN3CC(CF)C3)cc2F)N1CC(C)(C)F` [Example 1, (6S,8R)-6-(2,6-difluoro-4-(2-(3-(fluoromethyl)azetidin-1-yl)ethoxy)phenyl)-7-(2-fluoro-2-methylpropyl)-8-methyl-6,7,8,9-tetrahydro-3H-pyrazolo[4,3-f]isoquinoline], for which the DC50 in data set [1] came to 0.097 nM. Moreover, the hepatocyte CLint at 1 µM in data set [2] stood at 8 µL/min/1e6 cells.

`C[C@@H]1Cc2c(ccc3[nH]ncc23)[C@@H](c2ccc(OCCN3CC(CF)C3)cc2)N1CC1(F)CC1` [Example 29, (6R,8R)-7-((1-fluorocyclopropyl)methyl)-6-(4-(2-(3-(fluoromethyl)azetidin-1-yl)ethoxy)phenyl)-8-methyl-6,7,8,9-tetrahydro-3H-pyrazolo[4,3-f]isoquinoline]: the DC50 in data set [1] worked out at 0.35 nM. Also, the hepatocyte CLint at 1 µM in data set [2] was 12 µL/min/1e6 cells.

Regarding `C[C@@H]1Cc2c(ccc3[nH]ncc23)[C@@](C)(c2c(F)cc(OCCN3CC(CF)C3)cc2F)N1CC(C)(C)F` [Example 2, (6S,8R)-6-(2,6-difluoro-4-(2-(3-(fluoromethyl)azetidin-1-yl)ethoxy)phenyl)-7-(2-fluoro-2-methylpropyl)-6,8-dimethyl-6,7,8,9-tetrahydro-3H-pyrazolo[4,3-f]isoquinoline], the DC50 in data set [1] was found to be 0.088 nM. Moreover, the hepatocyte CLint at 1 µM in data set [2] was 8 µL/min/1e6 cells.

Take `C[C@@H]1Cc2c(ccc3[nH]ncc23)[C@@](C)(c2ccc(OCCN3CC(CF)C3)cc2)N1CC1(F)COC1` [Example 32, (6R,8R)-6-(4-(2-(3-(fluoromethyl)azetidin-1-yl)ethoxy)phenyl)-7-((3-fluorooxetan-3-yl)methyl)-6,8-dimethyl-6,7,8,9-tetrahydro-3H-pyrazolo[4,3-f]isoquinoline]: the DC50 in data set [1] was found to be 0.076 nM. For the same compound, in data set [2], the hepatocyte CLint at 1 µM was 29 µL/min/1e6 cells.

Turning to `C[C@@H]1Cc2c(ccc3[nH]ncc23)[C@@H](c2c(F)cc(NCCN3CC(CF)C3)cc2F)N1CC(C)(C)F` [Example 47, 3,5-difluoro-4-((6S,8R)-7-(2-fluoro-2-methylpropyl)-8-methyl-6,7,8,9-tetrahydro-3H-pyrazolo[4,3-f]isoquinolin-6-yl)-N-(2-(3-(fluoromethyl)azetidin-1-yl)ethyl)aniline], the DC50 in data set [1] stood at 0.28 nM. The “% downregulation (in brackets) in ER down regulation assay” value in data set [1] (>90% unless otherwise stated) amounted to 86%. In addition, the hepatocyte CLint at 1 µM in data set [2] came to 8 µL/min/1e6 cells.

On to `C[C@@H]1Cc2c(ccc3[nH]ncc23)[C@@H](c2ccc(OCCN3CC(CF)C3)cc2)N1CC1(F)COC1` [Example 31, (6R,8R)-6-(4-(2-(3-(fluoromethyl)azetidin-1-yl)ethoxy)phenyl)-7-((3-fluorooxetan-3-yl)methyl)-8-methyl-6,7,8,9-tetrahydro-3H-pyrazolo[4,3-f]isoquinoline], for which the DC50 in data set [1] was determined as 0.2 nM. For the same compound, the hepatocyte CLint at 1 µM in data set [2] is 38 µL/min/1e6 cells.
